According to PubChem BioAssay (NCI):
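Cultured in 96-well plates, cells were exposed to test compound for 48 hours across five concentrations. Here, GI50 denotes the concentration required for 50% inhibition of growth. TGI is the concentration that stops growth completely.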

Tests used:
Assay in all cases: NCI tumour cell line growth inhibition, 48 h
[1] = tested on: MDA-MB-468 breast
[2] = tested on: 786-0 renal
[3] = tested on: A498 renal
[4] = tested on: A549 NSCLC
[5] = tested on: ACHN renal
[6] = tested on: BT-549 breast
[7] = tested on: CAKI-1 renal
[8] = tested on: CCRF-CEM leukemia
[9] = tested on: COLO 205 colon
[10] = tested on: DU-145 prostate
[11] = tested on: EKVX NSCLC
[12] = tested on: HCC-2998 colon
[13] = tested on: HCT-116 colon
[14] = tested on: HCT-15 colon
[15] = tested on: HL-60(TB) leukemia
[16] = tested on: HOP-62 NSCLC
[17] = tested on: HOP-92 NSCLC
[18] = tested on: HS 578T breast
[19] = tested on: HT29 colon
[20] = tested on: IGROV1 ovarian
[21] = tested on: K-562 leukemia
[22] = tested on: KM12 colon
[23] = tested on: LOX IMVI melanoma
[24] = tested on: M14 melanoma
[25] = tested on: MALME-3M melanoma
[26] = tested on: MCF7 breast
[27] = tested on: MDA-MB-435
[28] = tested on: MOLT-4 leukemia
[29] = tested on: NCI-H226 lung
[30] = tested on: NCI-H23 lung
[31] = tested on: NCI-H460 lung
[32] = tested on: NCI-H522 lung
[33] = tested on: NCI/ADR-RES ovarian
[34] = tested on: OVCAR-3 ovarian
[35] = tested on: OVCAR-4 ovarian
[36] = tested on: OVCAR-5 ovarian
[37] = tested on: OVCAR-8 ovarian
[38] = tested on: PC-3 prostate
[39] = tested on: RPMI-8226 leukemia
[40] = tested on: RXF 393 renal
[41] = tested on: SF-268 CNS
[42] = tested on: SF-295 CNS
[43] = tested on: SF-539 CNS
[44] = tested on: SK-MEL-28 melanoma
[45] = tested on: SK-MEL-5 melanoma
[46] = tested on: SK-OV-3 ovarian
[47] = tested on: SN12C renal
[48] = tested on: SNB-19 CNS
[49] = tested on: SR leukemia
[50] = tested on: SW-620 colon
[51] = tested on: T-47D breast
[52] = tested on: TK-10 renal
[53] = tested on: U251 CNS
[54] = tested on: UACC-62 melanoma

COc1cccc(Nc2nccc(-c3cnn4ncccc34)n2)c1
GI50 [1]: 48.4 nM | TGI [1]: 106 nM

COC(=O)[C@]12CC[C@@H](C)[C@H](C)[C@@H]1C1=CC[C@@H]3[C@@]4(C)C(C=O)=C[C@@](C)(COC(=O)/C=C/c5ccccc5)[C@@H]4[C@H](O)C[C@@]3(C)[C@]1(C)CC2
GI50 [1]: 2590 nM | TGI [1]: 7490 nM

COc1ccc(/C=C2\c3cc(OC)c(OC)c(OC)c3CC[C@@H]2O)cc1F
GI50 [1]: 1160 nM | TGI [1]: > 100000 nM

CC1=C([Se]CC(OC(=O)[C@@H](CO)NC(=O)OC(C)(C)C)C(=O)NCCCCCC(=O)OCc2ccccc2)C(=O)c2ccccc2C1=O (stereo partly specified)
GI50 [1]: 1490 nM | TGI [1]: 3160 nM

CC1(C)N=C(N)N=C(N)N1c1cccc(Br)c1
GI50 [1]: 400 nM | TGI [1]: > 85100 nM

COc1ccc(OC)c(/C=C/c2nc(SCc3ccccc3)n(-c3ccc(Cl)cc3)n2)c1
GI50 [1]: 5120 nM | TGI [1]: 84500 nM

CCN(Cc1ccc(F)cc1)c1ccc(CO)c(OC)c1
GI50 [1]: 435 nM | TGI [1]: 2110 nM

Nc1ncnc2c1ccn2[C@@H]1O[C@H]([C@H](O)c2ccc(Cl)c(F)c2)[C@@H](O)[C@H]1O
GI50 [1]: 40700 nM | TGI [1]: > 100000 nM

C[C@@H](Oc1cc(-n2cnc3ccc(OC[C@@H](O)CO)cc32)sc1C(N)=O)c1ccccc1Cl
GI50 [1]: 15.9 nM | TGI [1]: 6070 nM

CCn1ccc(NS(=O)(=O)c2ccc(N)cc2)nc1=O
GI50 [1]: > 100000 nM | TGI [1]: > 100000 nM

C[C@H]1[C@@H](CC(=O)N[C@@H](Cc2coc3ccccc23)B(O)O)O[C@@H]2OC3(C)CC[C@H]4[C@H](C)CC[C@@H]1[C@@]24OO3
GI50 [2]: 2840 nM | TGI [2]: 15100 nM | GI50 [3]: 2280 nM | TGI [3]: 9800 nM | GI50 [4]: 2460 nM | TGI [4]: > 71000 nM | GI50 [5]: 2010 nM | TGI [5]: > 71000 nM | GI50 [6]: 556 nM | TGI [6]: 1800 nM | GI50 [7]: 3630 nM | TGI [7]: 21900 nM | GI50 [8]: 322 nM | TGI [8]: 5380 nM | GI50 [9]: 1890 nM | TGI [9]: 8900 nM | GI50 [10]: 5470 nM | TGI [10]: 62100 nM | GI50 [11]: 3140 nM | TGI [11]: 22200 nM | GI50 [12]: 1230 nM | TGI [12]: 2300 nM | GI50 [13]: 783 nM | TGI [13]: 2290 nM | GI50 [14]: 363 nM | TGI [14]: 4290 nM | GI50 [15]: 177 nM | TGI [15]: 2040 nM | GI50 [16]: 2260 nM | TGI [16]: 8310 nM | GI50 [17]: 1340 nM | TGI [17]: 4090 nM | GI50 [18]: 1900 nM | TGI [18]: 12000 nM | GI50 [19]: 1550 nM | TGI [19]: 4860 nM | GI50 [20]: 2260 nM | TGI [20]: 9300 nM | GI50 [21]: 1140 nM | TGI [21]: 13800 nM | GI50 [22]: 1980 nM | TGI [22]: 6320 nM | GI50 [23]: 892 nM | TGI [23]: 1990 nM | GI50 [24]: 1330 nM | TGI [24]: 3860 nM | GI50 [25]: 1070 nM | TGI [25]: 4580 nM | GI50 [26]: 969 nM | TGI [26]: 15600 nM | GI50 [27]: 287 nM | TGI [27]: 1510 nM | GI50 [1]: 917 nM | TGI [1]: 2570 nM | GI50 [28]: 267 nM | TGI [28]: 3540 nM | GI50 [29]: 876 nM | TGI [29]: 2140 nM | GI50 [30]: 1620 nM | TGI [30]: 7440 nM | GI50 [31]: 2460 nM | TGI [31]: 12000 nM | GI50 [32]: 493 nM | TGI [32]: 1810 nM | GI50 [33]: 8060 nM | TGI [33]: 37200 nM | GI50 [34]: 1260 nM | TGI [34]: 5180 nM | GI50 [35]: 2600 nM | TGI [35]: 68500 nM | GI50 [36]: 1650 nM | TGI [36]: 7120 nM | GI50 [37]: 2080 nM | TGI [37]: 11700 nM | GI50 [38]: 1190 nM | TGI [38]: 18800 nM | GI50 [39]: 267 nM | TGI [39]: 1420 nM | GI50 [40]: 259 nM | TGI [40]: 1120 nM | GI50 [41]: 3040 nM | TGI [41]: > 71000 nM | GI50 [42]: 1980 nM | TGI [42]: 7690 nM | GI50 [43]: 1050 nM | TGI [43]: 2470 nM | GI50 [44]: 1200 nM | TGI [44]: 3630 nM | GI50 [45]: 1130 nM | TGI [45]: 2220 nM | GI50 [46]: 3550 nM | TGI [46]: 13400 nM | GI50 [47]: 2180 nM | TGI [47]: 10600 nM | GI50 [48]: 3430 nM | TGI [48]: > 71000 nM | GI50 [49]: 143 nM | TGI [49]: 677 nM | GI50 [50]: 362 nM | TGI [50]: 10200 nM | GI50 [51]: 749 nM | TGI [51]: 3030 nM | GI50 [52]: 1640 nM | TGI [52]: > 71000 nM | GI50 [53]: 2140 nM | TGI [53]: 10500 nM | GI50 [54]: 1060 nM | TGI [54]: 2230 nM

Cc1nccc2c3ccc(OCc4cn(-c5ccc(Cl)cc5)nn4)cc3n(CC(C)C)c12
GI50 [1]: 968 nM | TGI [1]: 12000 nM

COc1ccc(N(C)c2nc(Cl)nc3cnn(C)c23)cc1
GI50 [1]: < 10 nM | TGI [1]: > 100000 nM

CN(C)CCOC(=O)Nc1nc2ccc(Sc3ccccc3)cc2[nH]1
GI50 [1]: 2020 nM | TGI [1]: 7730 nM

CN1CCN(Cc2ccc(NC(=O)c3cncc(C#Cc4cnc(N)c5cnccc45)c3)cc2C(F)(F)F)CC1
GI50 [1]: 285 nM | TGI [1]: 4520 nM

COCCn1cc(-c2csc(-c3c[nH]c4ccc(Br)cc34)n2)c2cccnc21
GI50 [1]: 2340 nM | TGI [1]: 7630 nM

CN1CCN(Cc2cc(NC(=O)c3cccc(C#Cc4cccc5[nH]nc(N)c45)c3)cc(C(F)(F)F)c2)CC1
GI50 [1]: 1750 nM | TGI [1]: 3350 nM

Nc1c(F)cc(-c2nc3cc(F)ccc3[se]2)cc1Br
GI50 [1]: 26 nM | TGI [1]: 93.3 nM

C=C1C(=O)O[C@H]2[C@H]1CC/C(COC(=O)NCCCCCCCCNC(=O)OC/C1=C/CC[C@@]3(C)O[C@H]3[C@H]3OC(=O)C(=C)[C@@H]3CC1)=C\CC[C@@]1(C)O[C@@H]21
GI50 [1]: 191 nM | TGI [1]: 462 nM

COC1=CC(=O)c2nc(Cl)ccc2C1=O
GI50 [1]: 1360 nM | TGI [1]: 2670 nM

O=[N+]([O-])c1ccc(Sc2ccncn2)c([N+](=O)[O-])c1
GI50 [1]: 982 nM | TGI [1]: 3780 nM

C=CCc1c(O)c(C(=O)/C=C/c2ccccc2)c(OC)c2ccoc12
GI50 [1]: 3070 nM | TGI [1]: 11400 nM

FC(F)(F)c1cc(Nc2ccc3cc(OCCCN4CCOCC4)ccc3n2)ccc1Cl
GI50 [1]: 1910 nM | TGI [1]: 6750 nM

Cc1ccc(S(=O)(=O)N2CCc3ccc(O)c4c3C2Cc2ccc3c(c2-4)OCO3)cc1 (stereo unspecified)
GI50 [1]: 743 nM | TGI [1]: 7490 nM

N#CC1C(=O)NC(c2ccccc2[N+](=O)[O-])c2sc3c(F)cccc3c21 (stereo unspecified)
GI50 [1]: 108 nM | TGI [1]: 283 nM

CCC(=O)Nc1cc(Nc2cc(NC3CC3)n3ncc(C#N)c3n2)ccc1C
GI50 [1]: 1160 nM | TGI [1]: 4060 nM

CNC(=O)c1cc(Oc2ccc3c(c2)sc2nc(-c4ccc(N(C)C)cc4)cn23)ccn1
GI50 [1]: 300 nM | TGI [1]: > 50000 nM

CCCN1CCC(c2ccc(Nc3nc(Nc4cc(F)ccc4C(N)=O)c4cc[nH]c4n3)c(OC)c2)CC1
GI50 [1]: 3470 nM | TGI [1]: 7390 nM

CN(C)c1ccc(N=C2C=CC(=O)c3ccccc32)cc1
GI50 [1]: 2150 nM | TGI [1]: 6050 nM

COCc1c(-c2ccc(NC(=O)Nc3cc(C(F)(F)F)ccc3F)c(F)c2)c2c(N)ncnn2c1CN1CCOCC1
GI50 [1]: 1620 nM | TGI [1]: 5680 nM

COc1cnc2c(c1)C(=O)c1c-2n(CCCN2CCNCC2)c(=O)c2cc([N+](=O)[O-])ccc12
GI50 [1]: 257 nM | TGI [1]: 1350 nM

C#Cc1cccc(NC(=O)c2ccc(NC(=O)CCl)cc2)c1
GI50 [1]: 18800 nM | TGI [1]: 76900 nM

Cc1cc(Cl)cc(Cc2cc(Cl)cc(C)c2O)c1O
GI50 [1]: 2220 nM | TGI [1]: 6920 nM

Cc1ccc(S(=O)(=O)Nc2ccc(-c3cc(-c4cccc(F)c4)c(C#N)c(N)n3)cc2)cc1
GI50 [1]: 1720 nM | TGI [1]: 3760 nM

CN(C)CCNC(=O)NC[C@H]1CC[C@@H]2[C@H](O1)c1cc(C(F)(F)F)ccc1N[C@H]2c1ccccc1
GI50 [1]: 34.9 nM | TGI [1]: 312 nM
